A short description of test [1]: Taste test in silica toothpaste formulation. Conditions: compound 0.1%, spearmint Optamint Flavor 1%, versus sample without compound. The text has this: A silica toothpaste formulation in combination with a standard spearmint flavour (Optamint® Flavor, dosage 1%) plus the respective compound of formula (IIa) or (IIb) dosage 0.1% was compared to a sample without such compound of formula (I). The taste impressions of the sample including the compound of formula (IIa) or (IIb), respectively, are described as follows: […]

Test [2] is described as follows: Taste test in alcohol free mouth wash formulation. Conditions: compound 0.1%, peppermint Optamint Flavor 0.15%, versus sample without compound. The text has this:
The compounds of formulae (IIa) and (IIIa) were further tested in oral care formulations. In particular, an alcohol free mouth wash formulation in combination with a standard peppermint flavor (Optamint® Flavor, dosage 0.15%) plus compound of formula (IIa) or (IIIa), respectively, (dosage 0.1%) was compared with a sample without any compound of formula (I), but being otherwise identically composed. The taste impressions of the samples including the respective compound of formula (IIa) or (IIIa) are described as follows: […]

For test [3], the system named is E. coli. Nature of the test: Fast time-kill test, inactivation time for 99.9% kill, E. coli. In kind it is cell-based. Conditions: Escherichia coli; 0.1% concentration; averages of four independent experiments. As for the experimental part:
(§1) This protocol gives an exact description on how to perform a fast time-kill experiment. Fast time-kill experiments serve to determine the antimicrobial kill activity of a specific substance or substance mixture against a particular microorganism or a mixture of microorganisms. To kill (synonymous: to inactivate) a microorganism means that after the treatment, the microorganism has permanently lost its capacity to grow or to replicate.
(§2) Microorganisms are grown in suitable growth medium allowing for exponential growth. For E. coli, Salmonella spp., S. aureus, P. aeruginosa, and for C. albicans tryptic soy broth medium is used. One hundred ml Erlenmeyer flasks containing 20 ml growth medium are inoculated with 10^5 to 10^8 microbial cells/ml and incubated overnight under continuous shaking (120 rpm) at a temperature allowing for exponential growth, usually between 20 and 37° C. The temperature is chosen in such a way to ensure the exponential growth for the used microorganisms, for E. coli, Salmonella spp., S. aureus, P. aeruginosa, and for C. albicans 37° C. is used.
(§3) After reaching the stationary growth phase, 100 μl of this culture are transferred in a second Erlenmeyer flask containing 20 ml of the same growth medium. This culture is shaken for further (preferably to up to 7 hours) under identical conditions as described above. Subsequently, this culture is diluted in the same growth medium to 10^5 to 10^9, preferably to 10^6 to 10^8 cells/ml. With this suspension of microorganism (named “microorganism working suspension”) the time-kill test is performed.
(§4) Test substances are dissolved in DMSO, EtOH and/or H2O, preferably in H2O, to prepare a 100× concentrated stock solution. […]
(§5) Samples are taken from reaction tubes after defined time intervals (preferably 1, 2 and 5 min) to determine the number of surviving microorganisms. […] The number of surviving microorganisms is determined by aspiring 100 μl volumes from reaction tubes and mixing it immediately with 900 μl growth medium to prepare a 10^−1 dilution. […]

Test [4] concerns S. aureus. Nature of the test: Fast time-kill test, inactivation time for 99.9% kill, S. aureus. The test is classed as cell-based. The conditions noted are these: Staphylococcus aureus; 0.1% concentration; averages of four independent experiments. On the procedure:
as §1, §2, §3, §4, §5

In test [5] the test system is C. albicans. As to the kind of experiment: Fast time-kill test, inactivation time for 99.9% kill, C. albicans. In kind it is cell-based, Candida albicans. Conditions: Candiada albicans; 0.1% concentration; averages of four independent experiments. As for the experimental part:
as §1, §2, §3, §4, §5

The subject of test [6] is E. coli, S. aureus and C. albicans. Nature of the test: Fast time-kill test, statements of the text over all investigated microorganisms. The test is classed as cell-based. Conditions: 0.1% concentration, span over E. coli, averages of four independent experiments. As for the experimental part:
as §1
Microorganisms are grown in suitable growth medium allowing for exponential growth. For E. coli, Salmonella spp., S. aureus, P. aeruginosa, and for C. albicans tryptic soy broth medium is used. One hundred ml Erlenmeyer flasks containing 20 ml growth medium are inoculated with 10^5 to 10^8 microbial cells/ml and incubated overnight under continuous shaking (120 rpm) at a temperature allowing for exponential growth, usually between 20 and 37° C. […]
as §5

Test [7] has as its system E. coli. As to the kind of experiment: Minimum inhibitory concentration, E. coli. The test is classed as cell-based, Escherichia coli. The conditions noted are these: for MIC: Escherichia coli. The text has this: (§6) Assessment of minimum inhibitory concentrations of thymol and 4-prenylphenol against versus microorganisms relevant for home and personal care:
(§7) The results of comparative assessment of minimum inhibitor concentration for both thymol and 4-prenylphenol are listed in Table 2.

Test [8] deals with S. aureus. Nature of the test: Minimum inhibitory concentration, S. aureus. In kind it is cell-based, Staphylococcus aureus. The conditions noted are these: for MIC: Staphylococcus aureus.
Description: as §6, §7

In test [9] the test system is C. albicans. Nature of the test: Minimum inhibitory concentration, C. albicans. The test is classed as cell-based, Candida albicans. The conditions noted are these: for MIC: Candida albicans.
Description: as §6, §7

Test [10] deals with Aspergillus niger. As to the kind of experiment: Minimum inhibitory concentration, A. niger. In kind it is cell-based. Conditions: for MIC: Aspergillus niger.
The subject of test [11] is microorganisms relevant for home and personal care. As to the kind of experiment: Minimum inhibitory concentration, further microorganisms of Table 2. In kind it is cell-based.
Description: as §6, §7

Test [12] relates to E. coli. As to the kind of experiment: Synergistic activity (Kull) in fast time-kill experiments, E. coli. The test is classed as cell-based, Escherichia coli. On the procedure:
(§8) This protocol gives an exact description on how to perform a fast time-kill experiment. Fast time-kill experiments serve to determine the antimicrobial kill activity of a specific substance or substance mixture against a particular microorganism or a mixture of microorganisms.
as §2, §3
(§9) Test substances are dissolved in DMSO, EtOH and/or H2O, preferably in H2O, to prepare a 100× concentrated stock solution. In case the test substance is not completely soluble in H2O, the solvents are chosen in to ensure a complete dissolution of the test substance, the chosen concentration of DMSO and EtOH being as low as possible. For solid substances, complete dissolution has to be ensured. […] Preferably, the concentrations of the test substances in the 100× concentrated stock solution are between 1 and 100%, corresponding to 0.01 to 1% in the final test. The amount of the 100× concentrated stock solution in the final test should not exceed 1% in order to limit the concentration of DMSO or EtOH to 1% in the final test.
(§10) Fast time-kill tests are performed in 1000 μl volumes in 1.5 ml plastic reaction tubes (Eppendorf). The test is started by mixing (in this particular order) 100 μl microorganism working suspension with 890 μl tryptic soy broth growth medium containing 0.1% Tween® 80 and 10 μl 100× concentrated stock solution of test substances. Controls are included that are prepared as described above, but using 100× stock solution without test substances. During the test, tubes are incubated at the same temperature as the microorganisms were grown, usually 20 to 37° C. (for E. coli, Salmonella spp., S. aureus, P. aeruginosa, and for C. albicans 37° C. is used) in an Eppendorf Thermomixer and are vigorously shaken at 1400 rpm.
(§11) Samples are taken from reaction tubes after defined time intervals (preferably 1, 2 and 5 min) to determine the number of surviving microorganisms. At time 0 (immediately after starting the test) samples are taken from control tubes to determine the initial number of microorganisms in the test. The number of surviving microorganisms is determined by aspiring 100 μl volumes from reaction tubes and mixing it immediately with 900 μl growth medium to prepare a 10^−1 dilution. Further dilutions are prepared in this way from 10^−2 to 10^−4. One hundred μl volumes of the different dilutions are plated on tryptic soy broth agar plates and incubated for up to 48 h at the same temperature as the microorganisms were grown, usually 20 to 37° C. (for E. coli, Salmonella spp., S. aureus, P. aeruginosa, and for C. albicans 37° C. is used). Colonies grown on plates are counted and the numbers of surviving microorganisms are calculated for the different treatments and time points. For substances with low minimum inhibitory concentrations (MIC), sufficient dilution below the concentration of the MIC value has to be ensured.

In test [13] the test system is S. aureus. Nature of the test: Synergistic activity (Kull) in fast time-kill experiments, S. aureus. In kind it is cell-based, Staphylococcus aureus. As for the experimental part:
as §8, §2, §3, §9, §10, §11

Converted amounts (≈) assume the structure as drawn. A value given as a limit tells only on which side of the number the result lay.

Take `C=C(C)CCc1ccc(O)cc1` [IIb, 4-(3-Methylbut-3-enyl)phenol]: the “numbing/tingling feeling on the tongue” value in test [1] is given as “clearly leaves a numbing/tingling feeling on the tongue”.
Turning to `CC(C)=CCc1ccccc1O` [IIIa, 2-(3-Methylbut-2-enyl)phenol], the “numbing/tingling feeling on the tongue” value in test [2] is “clearly leaves a numbing/tingling feeling on the tongue”.
`Oc1cc(Cl)ccc1Oc1ccc(Cl)cc1Cl` [Triclosan]: the “Inactivation time for 99.9% kill” value in test [3], in [4] and in [5] was above 100 min in each case. In [6], the “Inactivation time for a 99.9% kill” value is above 100 min.
`Cc1ccc(C(C)C)c(O)c1` [Thymol, reference compound]: the results for the “Inactivation time for 99.9% kill” value in [3], in [4] and in [5] were 4.1 min, 4.9 min and 8.7 min, respectively. The MIC (usually the lowest concentration found to suppress growth) in test [7] is 125 µg/mL (≈ 832 µM); in [8], 125 µg/mL (≈ 832 µM); in [9], 250 µg/mL (≈ 1660 µM); in test [10], 1000 µg/mL (≈ 6660 µM); in test [11] (Corynebacterium xerosis) it was 125 µg/mL (≈ 832 µM); in [11] (Fusobacterium nucleatum), 125 µg/mL (≈ 832 µM). The minimum inhibitory concentration (MIC) was 1000 µg/mL (≈ 6660 µM) in [11] (Malassezia furfur); 125 µg/mL (≈ 832 µM) in [11] (Porphyromonas gingivalis); 1000 µg/mL (≈ 6660 µM) in test [11] (Pseudomonas aeruginosa); 250 µg/mL (≈ 1660 µM) in test [11] (Salmonalla enteritidis); 250 µg/mL (≈ 1660 µM) in test [11] (Staphylococcus epidermidis); 250 µg/mL (≈ 1660 µM) in test [11] (Streptococcus mutans).
In the case of `CC(C)=CCc1ccc(O)cc1` [IIa, 4-(3-Methylbut-2-enyl)phenol], the “Inactivation time for 99.9% kill” value in test [3] is reported as 1.3 min; in test [4], 1.2 min; in test [5], 1.4 min. Moreover, the “minimum inhibitory concentration compared with Thymol” value in test [7] (E. coli) is “equal to the one of Thymol”; in test [8] (S. aureus) it was “equal to the one of Thymol”; in test [9] (C. albicans), “a factor of two lower”. Besides, the MIC amounted to 125 µg/mL (≈ 771 µM) in test [7]; 125 µg/mL (≈ 771 µM) in test [8]; 125 µg/mL (≈ 771 µM) in [9]; 64 µg/mL (≈ 394 µM) in test [10]; 125 µg/mL (≈ 771 µM) in test [11] (Corynebacterium xerosis); 64 µg/mL (≈ 394 µM) in test [11] (Fusobacterium nucleatum). Besides, the minimum inhibitory concentration (MIC) in test [11] (Malassezia furfur) was 1000 µg/mL (≈ 6160 µM); in test [11] (Porphyromonas gingivalis) it was 64 µg/mL (≈ 394 µM); in [11] (Pseudomonas aeruginosa) it was above 1000 µg/mL; in test [11] (Salmonalla enteritidis) it was 125 µg/mL (≈ 771 µM); in test [11] (Staphylococcus epidermidis), 125 µg/mL (≈ 771 µM); in test [11] (Streptococcus mutans), 125 µg/mL (≈ 771 µM). Also, the “antimicrobial activity against the mould A. niger” value in [10] is recorded as “strong antimicrobial activity”. In addition, the Inactivation rate k in test [12] (4-Prenylphenol 250 ppm) was 0.94 min⁻¹; in test [13] (4-Prenylphenol 400 ppm), 1.2 min⁻¹. Further, the “Inactivation time T99.9%” value amounted to 7.4 min in test [12] (4-Prenylphenol 250 ppm) and 5.6 min in [13] (4-Prenylphenol 400 ppm). In addition, the results for the “Reduction of surviving microorganisms” value in test [12] (4-Prenylphenol 250 ppm) and in [13] (4-Prenylphenol 400 ppm) were 0.39 and 0.29, respectively. The “numbing/tingling feeling on the tongue” value in test [2] and in test [1] was “clearly leaves a numbing/tingling feeling on the tongue” throughout.
Take `COC(=O)c1ccc(O)cc1` [Methylparaben, reference compound]: in test [12] (Methylparaben 2500 ppm), the Inactivation rate k was 0.09 min⁻¹, the “Inactivation time T99.9%” value was 89.1 min and the “Reduction of surviving microorganisms” value stood at 0.91. In addition, in test [13] (Methylparaben 5000 ppm), the Inactivation rate k is 0.40 min⁻¹, the “Inactivation time T99.9%” value came out at 18.1 min and the “Reduction of surviving microorganisms” value amounted to 0.67.
